The values that follow come from article PMC9611727, “Optimization of a Novel Mandelamide-Derived Pyrrolopyrimidine Series of PERK Inhibitors” (Pharmaceutics, 2022).

In one test the target is T1, PERK (Homo sapiens, UniProt Q9NZJ5).
T1 sequence (Q9NZJ5 30-1116): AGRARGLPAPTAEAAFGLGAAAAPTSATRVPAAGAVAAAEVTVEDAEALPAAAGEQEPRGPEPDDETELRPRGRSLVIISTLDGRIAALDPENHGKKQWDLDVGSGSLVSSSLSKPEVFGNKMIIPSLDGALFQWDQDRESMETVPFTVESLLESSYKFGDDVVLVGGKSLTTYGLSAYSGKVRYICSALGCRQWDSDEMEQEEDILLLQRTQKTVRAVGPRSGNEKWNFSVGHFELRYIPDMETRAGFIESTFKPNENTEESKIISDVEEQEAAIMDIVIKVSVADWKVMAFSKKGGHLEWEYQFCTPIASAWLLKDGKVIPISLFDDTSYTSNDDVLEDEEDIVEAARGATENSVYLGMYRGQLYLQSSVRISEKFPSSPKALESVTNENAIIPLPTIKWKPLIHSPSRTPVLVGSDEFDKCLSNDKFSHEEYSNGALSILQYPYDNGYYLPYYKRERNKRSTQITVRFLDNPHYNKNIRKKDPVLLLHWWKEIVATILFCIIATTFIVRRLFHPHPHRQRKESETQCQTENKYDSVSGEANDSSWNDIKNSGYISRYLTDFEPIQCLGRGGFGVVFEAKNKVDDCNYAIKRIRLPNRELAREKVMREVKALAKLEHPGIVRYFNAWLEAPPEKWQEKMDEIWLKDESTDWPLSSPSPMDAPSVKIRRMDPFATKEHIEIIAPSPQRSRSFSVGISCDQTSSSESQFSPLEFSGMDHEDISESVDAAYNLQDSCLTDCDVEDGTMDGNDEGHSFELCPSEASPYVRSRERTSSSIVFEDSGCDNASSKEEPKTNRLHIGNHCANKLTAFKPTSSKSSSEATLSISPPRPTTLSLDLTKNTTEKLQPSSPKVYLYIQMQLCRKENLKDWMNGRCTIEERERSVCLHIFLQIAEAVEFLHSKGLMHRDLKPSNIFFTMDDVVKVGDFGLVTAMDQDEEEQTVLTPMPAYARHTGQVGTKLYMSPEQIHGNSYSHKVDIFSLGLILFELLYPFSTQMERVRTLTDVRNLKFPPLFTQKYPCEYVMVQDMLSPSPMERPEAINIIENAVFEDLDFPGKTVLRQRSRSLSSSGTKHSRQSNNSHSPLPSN
As to the kind of experiment: PERK biochemical LanthaScreen TR-FRET assay (GFP-eIF2a phosphorylation). As for the experimental part:
Methods used to evaluate biochemical PERK activity are described and published elsewhere. In brief, biochemical PERK activity is evaluated using a LanthaScreenTM ([…]) TR-FRET assay to detect phosphorylation of a GFP-tagged eIF2a substrate (ThermoFisher). Excitation at […] of a terbium chelate donor fluorophore in an eIF2a antibody results in energy transfer to GFP acceptor fluorophore upon eIF2a phosphorylation by PERK. Reaction buffer was composed of 50 mM HEPES (pH 7.4), 10 mM MgCl2, 1 mM EGTA and 0.01% (v/v) BrijTM-35. Reactions were initiated by the addition of substrate and ATP, followed by incubation for 1 h at RT prior to addition of EDTA and the anti-peIF2a antibody. FRET was measured by an EnVision Plate Reader (PerkinElmer). Data were plotted as percent inhibition along a 10-point 3-fold dilution series of inhibitors. IC50 values were calculated using 4-parameter logistical fitting in XLFit.
(§1) The PERK activity of analog I was evaluated using cell-free biochemical assays. In these assays, PERK phosphorylation of eIF2a was assessed using a FRET-based labelled protein assay. Compounds were then evaluated for cellular activity by quantifying inhibition of eIF2a phosphorylation in HEK293 cells treated with the ER inducer tunicamycin [7].
On the technique in general: TR-FRET usually uses a lanthanide donor and a delayed reading to cut background.

The next test relates to p-eIF2α. As to the kind of experiment: Cellular PERK inhibition: p-eIF2a TR-FRET in tunicamycin-treated HEK293-EGFP-eIF2a cells. The format is cell-based. The procedure:
Methods used to evaluate in vitro cellular PERK inhibition are described and published elsewhere. In brief, stableHEK293 cells were created using lentiviral particles harboring a GFP-eIF2a expression vector. Transfectants were selected by puromycin and enriched using fluorescent cell sorting based on GFP expression. HEK293-EGFP-eIF2a cells were plated at 5000 cells/well in 384-well assay plates and incubated overnight. The following day, pyrrolopyrimidine analogs were added to wells using an Echo acoustic dispenser and incubated for 30 min. ER stress was induced by the addition of tunicamycin to the wells at […] for 2 h. Cells were lysed and peIF2a was evaluated using a TR-FRET system, as described above.
as §1

A further test relates to MOLM-13 (FLT3-ITD). As to the kind of experiment: Cell viability assay, MOLM-13. Type of test: cell-based. As to conditions: Homo sapiens.
The next test has as its system Kasumi-1 (FLT3wt). As to the kind of experiment: Cell viability assay, Kasumi-1. As to conditions: Homo sapiens. Type of test: cell-based.
[1] abbreviates: cell-free TR-FRET, GFP-eIF2a substrate, read-out: PERK IC50.
Setting [2] is: Homo sapiens, HEK293 cells, tunicamycin-induced ER stress, read-out: p-eIF2α IC50.

Structures are written as SMILES. Like-named read-outs stand apart in the source and are kept apart here. A value given as a limit tells only on which side of the number the result lay.

For `Cc1nc(N)c2c(-c3ccc(NC(=O)[C@H](O)c4cccc(Cl)c4)cc3Cl)cn(C)c2n1` [Compound 55], the results for the IC50 at PERK (setting [1]) and in the test on p-eIF2α (setting [2]) were 0.0016 µM and 0.017 µM, respectively.

Regarding `Cc1cccc([C@@H](O)C(=O)Nc2ccc(-c3cn(C)c4nc(C)nc(N)c34)c(Cl)c2)c1` [Compound 56], the IC50 on PERK (setting [1]) came to 0.0041 µM; with p-eIF2α (setting [2]), 0.018 µM.

In the case of `CCc1cccc([C@@H](O)C(=O)Nc2ccc(-c3cn(C)c4nc(C)nc(N)c34)c(Cl)c2)c1` [Compound 57], the IC50 is under 0.005 µM at PERK (bound stated, read-out: biochemical potency); 0.014 µM with p-eIF2α (setting [2]); under 0.015 µM with p-eIF2α (bound stated, read-out: cellular potency).

Regarding `Cc1nc(N)c2c(-c3ccc(NC(=O)[C@H](O)c4cccc(F)c4)cc3C(F)(F)F)cn(C)c2n1` [Compound 58], the IC50 at PERK (setting [1]) was found to be 0.0085 µM; in the test on p-eIF2α (setting [2]), 0.204 µM.

Regarding `CCc1cc(NC(=O)[C@H](O)c2cccc(F)c2)ccc1-c1cn(C)c2nc(C)nc(N)c12` [Compound 59], the figures for the IC50 on PERK (setting [1]) and in the test on p-eIF2α (setting [2]) were 0.004 µM and 0.041 µM, respectively.

As to `COc1cc(NC(=O)[C@H](O)c2cccc(F)c2)ccc1-c1cn(C)c2nc(C)nc(N)c12` [Compound 60], the figures for the IC50 on PERK (setting [1]) and in the test with p-eIF2α (setting [2]) were 0.236 µM and 1.85 µM, respectively.

Take `Cc1nc(N)c2c(-c3ccc(NC(=O)[C@H](O)c4cccc(F)c4)cc3OC(F)(F)F)cn(C)c2n1` [Compound 61]: the IC50 on PERK (setting [1]) is 0.023 µM; in the test with p-eIF2α (setting [2]), 0.435 µM.

As to `Cc1nc(N)c2c(-c3ccc(NC(=O)[C@H](O)c4cccc(F)c4)cc3)cn(C)c2n1` [Compound 62], the IC50 worked out at 0.002 µM on PERK (setting [1]) and 0.126 µM in the test with p-eIF2α (setting [2]).

Take `Cc1nc(N)c2c(-c3ccc(NC(=O)[C@H](O)c4cccc(C(F)(F)F)c4)cc3)cn(C)c2n1` [Compound 63]: the IC50 was determined as 0.0028 µM on PERK (setting [1]) and 0.013 µM in the test on p-eIF2α (setting [2]).

For the molecule `Cc1nc(N)c2c(-c3ccc(NC(=O)[C@H](O)c4cccc(Br)c4)cc3)cn(C)c2n1` [Compound 64], the IC50 on PERK (setting [1]) was found to be 0.0015 µM; in the test with p-eIF2α (setting [2]), 0.014 µM.

With `Cc1nc(N)c2c(-c3c(C)cc(NC(=O)C(O)c4cccc(F)c4)cc3F)cn(C)c2n1` (stereo not shown) [Compound 67], the IC50 at PERK (setting [1]) came to 0.022 µM; in the test with p-eIF2α (setting [2]), 0.078 µM.

Regarding `Cc1nc(N)c2c(-c3c(C)cc(NC(=O)C(O)c4cccc(F)c4)cc3C)cn(C)c2n1` (stereo not shown) [Compound 68], the IC50 on PERK (setting [1]) is 0.013 µM; with p-eIF2α (setting [2]), 0.082 µM.

As for `Cc1nc(N)c2c(-c3ccc(NC(=O)[C@H](O)c4cccc(F)c4)c(F)c3)cn(C)c2n1` [Compound 69], the figures for the IC50 on PERK (setting [1]) and with p-eIF2α (setting [2]) were 0.001 µM and 0.026 µM, respectively.

`Cc1nc(N)c2c(-c3cc(F)c(NC(=O)C(O)c4cccc(F)c4)cc3F)cn(C)c2n1` (stereo not shown) [Compound 71]: the IC50 amounted to 0.001 µM at PERK (setting [1]) and 0.034 µM in the test with p-eIF2α (setting [2]).

Turning to `Cc1nc(N)c2c(-c3ccc(NC(=O)[C@H](O)c4cccc(F)c4)nc3C)cn(C)c2n1` [Compound 72], the IC50 on PERK (setting [1]) is 0.017 µM; in the test on p-eIF2α (setting [2]) it was 0.105 µM.

`Cc1nc(N)c2c(-c3ccc(NC(=O)[C@H](O)c4cccc(C(F)(F)F)c4)nc3C)cn(C)c2n1` [Compound 73]: the IC50 at PERK (setting [1]) was found to be 0.013 µM; in the test with p-eIF2α (setting [2]), 0.051 µM.

Turning to `Cc1nc(N)c2c(-c3cnc(NC(=O)[C@H](O)c4cccc(F)c4)cc3C)cn(C)c2n1` [Compound 74], the IC50 was found to be 0.0083 µM on PERK (setting [1]) and 0.146 µM in the test with p-eIF2α (setting [2]).

In the case of `Cc1nc(N)c2c(-c3cnc(NC(=O)[C@H](O)c4cccc(C(F)(F)F)c4)cc3C)cn(C)c2n1` [Compound 75], the IC50 was 0.0068 µM on PERK (setting [1]) and 0.095 µM with p-eIF2α (setting [2]).

Turning to `Cc1nc(N)c2c(-c3cnc(NC(=O)[C@H](O)c4cccc(F)c4)nc3C)cn(C)c2n1` [Compound 76], the IC50 on PERK (setting [1]) was 0.647 µM; with p-eIF2α (setting [2]) it was over 10 µM.

For the molecule `CC1(COc2ccc3c(c2)ncn3-c2ccc3cccc(N4CCC(N)CC4)c3n2)COC1` [Crenolanib], the values for the IC50 in the test with MOLM-13 (FLT3-ITD) and in the test with Kasumi-1 (FLT3wt) were 0.003 µM and 0.08 µM, respectively.

Regarding `CCc1nc(C(N)=O)c(Nc2ccc(N3CCC(N4CCN(C)CC4)CC3)c(OC)c2)nc1NC1CCOCC1` [Gilteritinib], the IC50 in the test with MOLM-13 (FLT3-ITD) is 0.014 µM; in the test with Kasumi-1 (FLT3wt), 0.478 µM.
